Paper PMC11396514, “Synthesis and Biological Evaluation of Novel Piperidine-3-Carboxamide Derivatives as Anti-Osteoporosis Agents Targeting Cathepsin K” (Molecules, 2024)

Assays:
Recombinant human Cat K = target: T1, Recombinant human Cat K (Homo sapiens, UniProt P43235); assay: In vitro enzymatic assay of Cat K inhibition (Z-Phe-Arg-AMC fluorescence); format: biochemical; conditions: pH 6.0, substrate Z-Phe-Arg-AMC, read-out: Cat K IC50 (µM) ± SD
T1 sequence (P43235 115-329): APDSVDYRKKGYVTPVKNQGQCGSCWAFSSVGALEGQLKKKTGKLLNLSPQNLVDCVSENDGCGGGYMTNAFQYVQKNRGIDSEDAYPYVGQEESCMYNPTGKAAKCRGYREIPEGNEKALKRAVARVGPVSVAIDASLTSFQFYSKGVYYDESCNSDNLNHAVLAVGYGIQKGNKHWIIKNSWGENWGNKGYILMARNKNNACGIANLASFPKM
Protocol: Compounds were tested at eight concentrations (100–0.001 µM). Recombinant human Cat K (5.5 ng/mL) in reaction buffer (50 µL) containing sodium acetate (50 mM), EDTA (2.5 mM), and DTT (1 mM) was added to a 96-well plate containing the test compounds at pH 6.0. The plate was incubated at 37 °C for 15 min, and the fluorescence (F1) was measured at 355 nm excitation and 460 nm emission using a microplate reader (Wallac 1420 Victor2, Norwalk, CA, USA). Subsequently, Z-Phe-Arg-AMC (20 µL, 10 µM) was added, and the plate was incubated at 37 °C for 1 h. Fluorescence (F2) was measured again at 355 nm excitation and 460 nm emission. The inhibition rate was calculated using the formula: inhibition (%) = [control (F2 − F1) − sample (F2–F1)]/[control (F2 − F1) − blank (F2 − F1)] × 100%. IC50 values were calculated using the SPSS 17.0 software.

[1] = tested on: RANKL-induced RAW264.7 cells; assay: In vitro anti-bone resorption assay: CTX-I released into culture medium (ELISA), cells on bovine femur slices; format: cell-based; conditions: compound 1 µM, 5 days; for CTX-I concentration compared to the model group (in words): vs untreated model group
Source text: (§1) Type I collagen, the predominant structural protein in bone, constitutes approximately 90% of the bone matrix protein [22]. During bone renewal, type I collagen is degraded, releasing short peptide fragments such as the C-terminal peptide of type I collagen (CTX-I) into the bloodstream. The concentration of CTX-I in the patient’s blood serves as a crucial biomarker for evaluating the degree of osteoporosis. In vitro, bone resorption can be assessed by measuring the concentration of CTX-I using a model in which osteoclasts are cultured on bone slices. In this experiment, the in vitro anti-bone resorption activities of the test compounds were evaluated in RANKL-induced RAW264.7 cells. This evaluation was based on the concentration of CTX-I released into the cell culture medium due to bone degradation, as well as the area of bone resorption pits formed on bone slices.
(§2) RAW264.7 cells, obtained from the cell bank of the Chinese Academy of Medical Sciences, were seeded into 96-well plates at a density of 1 × 10^5 cells per well with bovine femur slices. To induce cell differentiation, 50 ng mL^−1 of RANKL was added to the RAW264.7 cells. The cells were cultured for 5 days at 37 °C under 5% CO2 with the test compounds at a concentration of 1 µM. The culture supernatant was collected to measure the CTX-I concentration using ELISA. The bone slices were fixed with 2.5% glutaraldehyde for 7 min, then washed 3 times with 0.25 mol/L ammonium hydroxide, dehydrated using a series of ethanol solutions (40%, 75%, 80%, 95%, and anhydrous ethanol), and dried naturally. After staining with 1% toluidine blue solution at room temperature for 3–4 min, the bone slices were rinsed with distilled water and analyzed using an optical microscope. Bone resorption areas were calculated using image analysis software (iBright CL1500, Redmond, WA, USA).

[2] = tested on: RANKL-induced RAW264.7 cells; assay: In vitro anti-bone resorption assay: area of bone resorption pits on bone slices (toluidine blue); format: cell-based; conditions: compound 1 µM, 5 days, compared with MIV-711 / model group
Source text: as §1, §2

## COc1ccc(S(=O)(=O)N2CCC[C@@H](C(C)=O)C2)cc1 [Compound F-12]
Recombinant human Cat K
  IC50: 13.5 ± 2.16 µM

## COc1ccc(S(=O)(=O)N2CCC[C@@H](C(=O)NCc3ccccc3C)C2)cc1 [Compound H-1, (R)-1-((4-methoxyphenyl)sulfonyl)-N-(2-methylbenzyl)piperidine-3-carboxamide]
Recombinant human Cat K
  IC50: 3.52 ± 0.44 µM
other
  melting point: 170.4 to 171.4 °C

## COc1ccc(S(=O)(=O)N2CCC[C@@H](C(=O)NCc3cccc(C)c3)C2)cc1 [Compound H-2, (R)-1-((4-methoxyphenyl)sulfonyl)-N-(3-methylbenzyl)piperidine-3-carboxamide]
Recombinant human Cat K
  IC50: 4.76 ± 0.71 µM
other
  melting point: 189.8 to 190.1 °C

## COc1ccc(S(=O)(=O)N2CCC[C@@H](C(=O)NCc3ccc(C)cc3)C2)cc1 [Compound H-3, (R)-1-((4-methoxyphenyl)sulfonyl)-N-(4-methylbenzyl)piperidine-3-carboxamide]
Recombinant human Cat K
  IC50: 4.39 ± 0.65 µM
other
  melting point: 182.3 to 182.7 °C

## COc1ccc(S(=O)(=O)N2CCC[C@@H](C(=O)NCc3ccccc3OC)C2)cc1 [Compound H-4, (R)-N-(2-methoxybenzyl)-1-((4-methoxyphenyl)sulfonyl)piperidine-3-carboxamide]
Recombinant human Cat K
  IC50: 2.48 ± 0.37 µM
other
  melting point: 143.7 to 144.2 °C

## COc1ccc(S(=O)(=O)N2CCC[C@@H](C(=O)NCc3cccc(OC)c3)C2)cc1 [Compound H-5, (R)-N-(3-methoxybenzyl)-1-((4-methoxyphenyl)sulfonyl)piperidine-3-carboxamide]
Recombinant human Cat K
  IC50: 2.93 ± 0.4 µM
other
  melting point: 130.2 to 131.2 °C

## COc1ccc(CNC(=O)[C@@H]2CCCN(S(=O)(=O)c3ccc(OC)cc3)C2)cc1 [Compound H-6, (R)-N-(4-methoxybenzyl)-1-((4-methoxyphenyl)sulfonyl)piperidine-3-carboxamide]
Recombinant human Cat K
  IC50: 3.64 ± 0.39 µM
other
  melting point: 139.4 to 140.9 °C

## COc1ccc(S(=O)(=O)N2CCC[C@@H](C(=O)NCc3ccccc3Cl)C2)cc1 [Compound H-7, (R)-N-(2-chlorobenzyl)-1-((4-methoxyphenyl)sulfonyl)piperidine-3-carboxamide]
Recombinant human Cat K
  IC50: 1.06 ± 0.18 µM
other
  melting point: 192.3 to 193.6 °C

## COc1ccc(S(=O)(=O)N2CCC[C@@H](C(=O)NCc3cccc(Cl)c3)C2)cc1 [Compound H-8, (R)-N-(3-chlorobenzyl)-1-((4-methoxyphenyl)sulfonyl)piperidine-3-carboxamide]
[1]
  CTX-I concentration compared to the model group (in words): reduced CTX-I concentration
Recombinant human Cat K
  IC50: 0.45 ± 0.11 µM
other
  melting point: 146.1 to 148.7 °C

## COc1ccc(S(=O)(=O)N2CCC[C@@H](C(=O)NCc3ccccc3Br)C2)cc1 [Compound H-10, (R)-N-(2-bromobenzyl)-1-((4-methoxyphenyl)sulfonyl)piperidine-3-carboxamide]
Recombinant human Cat K
  IC50: 2.18 ± 0.39 µM
other
  melting point: 153.7 to 154.5 °C

## COc1ccc(S(=O)(=O)N2CCC[C@@H](C(=O)NCc3cccc(Br)c3)C2)cc1 [Compound H-11, (R)-N-(3-bromobenzyl)-1-((4-methoxyphenyl)sulfonyl)piperidine-3-carboxamide]
[1]
  CTX-I concentration compared to the model group (in words): reduced CTX-I concentration
Recombinant human Cat K
  IC50: 0.66 ± 0.2 µM
other
  melting point: 124.7 to 126.5 °C

## COc1ccc(S(=O)(=O)N2CCC[C@@H](C(=O)NCc3ccc(Br)cc3)C2)cc1 [Compound H-12, (R)-N-(4-bromobenzyl)-1-((4-methoxyphenyl)sulfonyl)piperidine-3-carboxamide]
[1]
  CTX-I concentration compared to the model group (in words): reduced CTX-I concentration
Recombinant human Cat K
  IC50: 0.22 ± 0.05 µM
[2]
  Anti-bone resorption activity by area of bone resorption pits (in words): comparable to that of MIV-711
other
  melting point: 148.1 to 149.3 °C

## COc1ccc(CNC(=O)[C@@H]2CCCN(S(=O)(=O)c3ccccc3Br)C2)cc1 [Compound H-13, (R)-1-((2-bromophenyl)sulfonyl)-N-(4-methoxybenzyl)piperidine-3-carboxamide]
[1]
  CTX-I concentration compared to the model group (in words): reduced CTX-I concentration
Recombinant human Cat K
  IC50: 0.74 ± 0.12 µM
other
  melting point: 189.5 to 190.5 °C

## COc1ccc(CNC(=O)[C@@H]2CCCN(S(=O)(=O)c3cccc(Br)c3)C2)cc1 [Compound H-14, (R)-1-((3-bromophenyl)sulfonyl)-N-(4-methoxybenzyl)piperidine-3-carboxamide]
Recombinant human Cat K
  IC50: 0.91 ± 0.15 µM
other
  melting point: 203.5 to 204.2 °C

## COc1ccc(CNC(=O)[C@@H]2CCCN(S(=O)(=O)c3ccc(Br)cc3)C2)cc1 [Compound H-15, (R)-1-((4-bromophenyl)sulfonyl)-N-(4-methoxybenzyl)piperidine-3-carboxamide]
Recombinant human Cat K
  IC50: 0.85 ± 0.19 µM
other
  melting point: 152.4 to 154.4 °C

## COc1ccc(CNC(=O)[C@@H]2CCCN(S(=O)(=O)c3ccccc3Cl)C2)cc1 [Compound H-16, (R)-1-((2-chlorophenyl)sulfonyl)-N-(4-methoxybenzyl)piperidine-3-carboxamide]
[1]
  CTX-I concentration compared to the model group (in words): reduced CTX-I concentration
Recombinant human Cat K
  IC50: 2.03 ± 0.43 µM
other
  melting point: 162.3 to 164.5 °C

## COc1ccc(CNC(=O)[C@@H]2CCCN(S(=O)(=O)c3cccc(Cl)c3)C2)cc1 [Compound H-17, (R)-1-((3-chlorophenyl)sulfonyl)-N-(4-methoxybenzyl)piperidine-3-carboxamide]
[1]
  CTX-I concentration compared to the model group (in words): reduced CTX-I concentration
Recombinant human Cat K
  IC50: 0.47 ± 0.12 µM
[2]
  Anti-bone resorption activity by area of bone resorption pits (in words): comparable to that of MIV-711
other
  melting point: 117.1 to 119.9 °C

## COc1ccc(CNC(=O)[C@@H]2CCCN(S(=O)(=O)c3ccc(Cl)cc3)C2)cc1 [Compound H-18, (R)-1-((4-chlorophenyl)sulfonyl)-N-(4-methoxybenzyl)piperidine-3-carboxamide]
Recombinant human Cat K
  IC50: 0.78 ± 0.3 µM
other
  melting point: 147 to 148.7 °C

## COc1ccc(CNC(=O)[C@@H]2CCCN(S(=O)(=O)c3ccccc3C)C2)cc1 [Compound H-19, (R)-N-(4-methoxybenzyl)-1-(o-tolylsulfonyl)piperidine-3-carboxamide]
Recombinant human Cat K
  IC50: 5.33 ± 0.94 µM
other
  melting point: 108.3 to 109.4 °C

## COc1ccc(CNC(=O)[C@@H]2CCCN(S(=O)(=O)c3cccc(C)c3)C2)cc1 [Compound H-20, (R)-N-(4-methoxybenzyl)-1-(m-tolylsulfonyl)piperidine-3-carboxamide]
Recombinant human Cat K
  IC50: 3.82 ± 0.91 µM
other
  melting point: 152.6 to 154.2 °C

## COc1ccc(CNC(=O)[C@@H]2CCCN(S(=O)(=O)c3ccc(C)cc3)C2)cc1 [Compound H-21, (R)-N-(4-methoxybenzyl)-1-tosylpiperidine-3-carboxamide]
Recombinant human Cat K
  IC50: 3.65 ± 0.86 µM
other
  melting point: 162.9 to 163.7 °C

## C#C[C@@H]1CN(C(=O)[C@H](CC(C)C)NC(=O)c2ccc(-c3nc(N4CCN(C)CC4)sc3F)cc2)[C@@H]2C(=O)CO[C@H]12 [MIV-711, reference compound]
[1]; ELISA
  CTX-I concentration in the cell culture medium: 21.73 ± 3.18 nM
Recombinant human Cat K
  IC50: 0.09 ± 0.02 µM
